This series is described as follows: gradient 5% acetonitrile 3 min, to 50% in 2 min, to 85% in 15 min, held 3 min, 100 µL/min. To be noted: column: Zorbax Extend-C18 2.1 x 50 mm; eluents: water / acetonitrile, 0.1% formic acid. An outline of the steps: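 Pure standards were run in mixtures of ~100 molecules by HPLC coupled to a quadrupole time-of-flight mass spectrometer. The column was a Zorbax Extend-C18 (2.1 × 50 mm, 1.8 μm) at 100 μL/min, with water and acetonitrile each containing 0.1% formic acid, in positive and negative ionization mode. Dead and dwell volumes were 40 μL and 900 μL. Retention time was taken from computationally picked adduct peaks, each manually inspected, with data collected over 3 months.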
In turn, `CC1=NS(=O)(=O)N(C)C=C1C(=O)OCc1ccc(C#N)cc1` had an RP-LC retention time of 842 s. `COc1cc(CNC(=O)c2c(N3CCCC3=O)c3cc(F)ccc3n2C)cc(OC)c1OC` came in with an RP-LC retention time of 791 s. As to `CCOc1ccc(-c2noc(CN3N=NC4C(=O)N(c5cccc(SC)c5)C(=O)C43)n2)cc1OC` (stereo not given), the RP-LC retention time came to 984 s. `COc1ccc2[nH]cc(CCN3CC(C(=O)NC4CCCC4)CC3=O)c2c1` (stereo not given) registered an RP-LC retention time of 709 s. `Cc1ccc(CC(=O)N2CCc3cc(-c4ccno4)ccc32)cc1`: the RP-LC retention time is 1020 s.

For the compound `CCOC(=O)c1ccc(NC(=O)NCC(c2cccnc2)c2cn(C)c3ccccc23)cc1` (stereo not given), the RP-LC retention time was found to be 824 s.

Take `CN(C)S(=O)(=O)c1ccc2c(c1)N(CC(=O)NCC1COCCO1)C(=O)C1CCCCN21` (stereo not given): the RP-LC retention time was found to be 696 s. Under `Cc1cc(C(=O)NCC2Cn3cccc3C(=O)N2C)n(C)n1` (stereo not given) stands 600 s; under `COCc1nc2nccc(-c3ccc(OC)cc3)n2n1`, 690 s. Turning to `Cc1ccc(-c2ncc(C(=O)Nc3cc(C)ccc3F)c(-c3ccncc3)n2)cc1`, the RP-LC retention time is 995 s. Under `Cc1nn(-c2ccccc2)c2c1N(CCCC(=O)NCc1ccc(N(C)C)cc1)C(=O)CS2` stands 628 s; under `Cc1nn(CC(=O)NCc2cc(F)cc(F)c2)c(=O)c2nc(-c3ccccc3)sc12`, 891 s; under `CCCNC(=O)N1c2ccccc2CC1c1nc(C(C)C)no1` (stereo not given), 910 s.

Regarding `O=C1CCC(C(=O)N2CCC3(CCC3O)CC2)=NN1` (stereo not given), the RP-LC retention time came to 575 s. As to `Cc1ccc(C)c(NC(=O)Cn2nc3cc(C)nc(-c4ccccc4)n3c2=O)c1`, the RP-LC retention time amounted to 868 s. With `COc1cc2c(cc1OC)C(C(=O)NCc1cccnc1)C(c1ccc(SC)cc1)N(C)C2=O` (stereo not given), the RP-LC retention time was 630 s. Under `CCn1nc(C)n2cc(S(=O)(=O)NCc3ccc(Cl)cc3)cc2c1=O` stands 904 s; under `O=C(Nc1ccc(Br)cc1F)NC1CCN(c2ccc(F)cc2)C1=O` (stereo not given), 937 s. `CCC(=O)N1CCc2c(-c3ccccc3)cccc2[C@H]1C` came in with an RP-LC retention time of 1030 s. Compound `CCN1CCc2nc(-c3ccc(F)cc3)n(CC(=O)N3CCc4ccccc4C3)c(=O)c2C1` came in with an RP-LC retention time of 635 s.

On to `COc1ccc(N2CCN(Cc3nc(-c4ccc(N5CCOCC5)nc4)no3)CC2)cc1`, for which the RP-LC retention time was 688 s. For `Cc1ccc(C(=O)NC2CCN(c3cc(-c4cccs4)[nH]n3)C2)cc1C` (stereo not given), the RP-LC retention time is 726 s. In the case of `Cc1ccccc1C(=O)Nc1nnc(SCc2nnc(-c3ccccc3C)o2)s1`, the RP-LC retention time was 948 s. `Cc1ccc(NC(=O)N2CCC(n3c(-c4ccoc4)nc4cccnc43)C2)cc1` (stereo not given) gave an RP-LC retention time of 740 s. Under `CCCCC(=O)Nc1ccc2nc(N3CCN(CCC)CC3)cc(C(=O)O)c2c1` stands 590 s; under `CC(=O)N1CCc2cc(N3CC(C(=O)Nc4ccc(C)cc4F)CC3=O)ccc21` (stereo not given), 717 s.

As for `O=C(Cn1c(CN2CCOCC2)nc2ccccc21)N1CCCC1`, the RP-LC retention time was 579 s.

Take `Cc1ccccc1CNC(=O)c1nnc(-c2ccc(S(=O)(=O)N(C)C)cc2)o1`: the RP-LC retention time was found to be 874 s. The figure for `Cc1ccc(C)c(NC(=O)N2CCC3(CC2)NC(=O)c2ccccc2N3C)c1` is 763 s; for `CCN(CC)S(=O)(=O)c1ccc(Cl)c(-c2nnc(-c3ccc(OC)cc3)o2)c1` it is 1090 s. The compound `Cc1cc(C)cc(NC(=O)Nc2ccc3nnc(C)n3c2)c1` registered an RP-LC retention time of 661 s. In the case of `CCC(C)N(CC(=O)N1CCc2sccc2C1COc1ccc(F)cc1)C(=O)COC` (stereo not given), the RP-LC retention time turned out to be 906 s.

`CCc1cccc(C)c1Nc1c(-c2ccc(SC)cc2)nc2ncccn12`: the RP-LC retention time amounted to 916 s. `O=C(c1cccs1)N1CCCCC1c1nncn1-c1ccccc1` (stereo not given) came in with an RP-LC retention time of 705 s. The compound `CCN1CCN(Cc2nc3cc(NC(=O)CC(C)C)ccc3n2C(C)C)CC1` returned an RP-LC retention time of 571 s.

Take `Cc1csc(-c2cc(S(=O)(=O)NCCN3CCCC3)cn2CC(=O)N2CCCCC2)n1`: the RP-LC retention time was 649 s. The figure for `O=C1NCCCCCCN(C(=O)c2ccc3ccccc3n2)[C@H]2C[C@H](C(=O)N3CCc4ccccc4C3)C[C@@H]12` is 896 s; for `CCC(=O)NCc1nc2c(n1CC)CN(S(=O)(=O)c1ccc(C)c(C)c1)CC2` it is 583 s; for `CCOc1ccc(NC(=O)N2CCC(CN3CCCC(C)C3)CC2)cc1` (stereo not given) it is 639 s.

`COc1ccccc1-c1csc(-c2nnn(-c3ccc(C)c(C)c3)c2N)n1` showed an RP-LC retention time of 1220 s. On to `O=c1cc(-c2ccc(F)cc2)ncn1Cc1cccc(C(F)(F)F)c1`, for which the RP-LC retention time was found to be 940 s.

`CC1=C(c2ccccc2)S(=O)(=O)N=C1N1CCCN(C(=O)c2cccc(Cl)c2)CC1` yielded an RP-LC retention time of 862 s. With `CCNC(=O)N1CC(Oc2ccc(-c3nc(-c4ccccc4)no3)cc2)C1`, the RP-LC retention time came out at 945 s. The compound `Cn1cc(CC(=O)NCc2cc(F)ccc2F)c2cccnc21` returned an RP-LC retention time of 683 s. On to `O=C(Cn1cnc2nc(N3CCC(C(=O)NC4CC4)CC3)sc2c1=O)Nc1ccccc1`, for which the RP-LC retention time was 650 s. In the case of `CCCc1c(C(=O)NCC2CCCO2)nnn1-c1ccc(OC)cc1` (stereo not given), the RP-LC retention time amounted to 783 s.

As to `COCCN1C(=O)C(CC(=O)NCCCn2cccn2)=C2CCCCC21` (stereo not given), the RP-LC retention time was found to be 634 s.

With `Cc1sc(NC(=O)c2ccco2)nc1-c1ccc2c(c1)NC(=O)CO2`, the RP-LC retention time was determined as 770 s. Compound `CCN(CC)C(=O)c1ccc2c(c1)N(CC(=O)NC)C(=O)C1CCCCN21` (stereo not given) returned an RP-LC retention time of 684 s. Under `COc1ccccc1-c1nnc(-c2ccc(OC)c(S(=O)(=O)N(C)C)c2)o1` stands 798 s; under `COCCCNC(=O)C1(C)CCC(=O)N1CCc1c[nH]c2ccccc12` (stereo not given), 668 s; under `CC1CCC(NC(=O)c2nnc(-c3ccc(S(=O)(=O)N4CCCCC4)cc3)o2)CC1` (stereo not given), 1110 s.

`O=C(Nc1ccc2c(c1)OCCO2)C1CCN(C(=O)c2ccccc2F)CC1` came in with an RP-LC retention time of 734 s. With `CCc1cc(-c2csc(S(=O)(=O)NCC3CCN(Cc4ccc(Cl)cc4)CC3)c2)on1`, the RP-LC retention time is 739 s. The compound `O=C(NCc1cccs1)c1ccc2nc(CCc3ccccc3)oc2c1` came in with an RP-LC retention time of 979 s.

On to `Cc1ccc(NC(=O)Cn2nc(C(=O)N3CCCC3)c3ccccc32)cc1C`, for which the RP-LC retention time is 828 s. The figure for `COc1cc(NC(=O)N2CCN(C)c3ncccc32)cc(OC)c1OC` is 584 s. Compound `COc1cc(Br)c(CC2C(=O)Nc3ccccc32)cc1OC` (stereo not given) registered an RP-LC retention time of 842 s. `Cc1ccccc1NC(=O)C1CCN(S(=O)(=O)c2cc(C(=O)N3CCCC3)cs2)CC1` had an RP-LC retention time of 760 s. For `CC(C)CNC(=O)Cc1nnc(-c2ccccc2)o1`, the RP-LC retention time stood at 718 s. Take `CCN1C(=O)C(C)(C(=O)NCc2ccc(OC)cc2)Oc2cccnc21` (stereo not given): the RP-LC retention time is 803 s.

Compound `O=C(NCc1ccc(Cl)cc1)C1CCN(c2cncnc2N2CCOCC2)CC1` displayed an RP-LC retention time of 647 s. Compound `Cc1ccc(CNC(=O)CC2CCN(C(=O)c3[nH]c(C)cc3C)CC2)cc1` yielded an RP-LC retention time of 797 s. In the case of `CC1CCCC(NC(=O)Cn2nc(Cc3ccncc3)c3ccccc3c2=O)C1C` (stereo not given), the RP-LC retention time turned out to be 655 s. As to `CCNS(=O)(=O)c1cccnc1Nc1ccc(Cl)c(C)c1`, the RP-LC retention time turned out to be 1100 s.

`CC(C)CNC(=O)c1cn(-c2ccc(-c3nc(C4CC4)no3)cn2)cn1` returned an RP-LC retention time of 1110 s. `CCOc1nccnc1N1CCC(N(C)C(=O)c2ccc(C)nc2)C1` (stereo not given) yielded an RP-LC retention time of 597 s. In turn, `O=S(=O)(CCOc1ccc(F)cc1)Nc1cccnc1` displayed an RP-LC retention time of 627 s. Under `CCc1ccc(S(=O)(=O)N2CCCC(Cn3c(C)nc4cccnc43)C2)cc1` (stereo not given) stands 769 s; under `Cc1cccc(-n2cc(C(=O)OCc3cccnc3)c3ccccc3c2=O)c1`, 808 s. Turning to `O=C(Cn1cccc1-c1nc(-c2ccc3c(c2)OCO3)no1)Nc1ccc2c(c1)CCC2`, the RP-LC retention time was determined as 1140 s. With `CC(C)c1noc(-c2cc(=O)n(CC(=O)Nc3ccc(Cl)cc3)c3ccccc23)n1`, the RP-LC retention time was found to be 1060 s. Regarding `O=C(CC1CCN(C(=O)c2ccc3nc(-c4ccccc4)oc3c2)CC1)NCc1ccco1`, the RP-LC retention time was found to be 789 s. As for `O=C(CN1C(=O)CCS(=O)(=O)c2ccccc21)Nc1ccc(Cl)cc1`, the RP-LC retention time was 797 s.

`CCN1CCN(C(=O)c2ccc(S(=O)(=O)c3ccccc3)s2)CC1`: the RP-LC retention time was 617 s. Turning to `COc1ccc(C(O)CN2CCN(c3ccc(C)cc3)CC2)cc1` (stereo not given), the RP-LC retention time was 663 s. The figure for `Cc1nn2cnnc2c(C)c1CCC(=O)NCCN(C)Cc1ccccc1` is 571 s; for `O=C(NCCC1=CCCCC1)C1CCCN(c2nccnc2Sc2ccccc2)C1` (stereo not given) it is 1170 s; for `Cc1cc(C(=O)NCc2cc(F)cc(F)c2)nc2cc(-c3cccs3)nn12` it is 1120 s. `O=C(NCc1ccnc(N2CCSCC2)c1)Nc1ccc(F)c(Cl)c1` showed an RP-LC retention time of 673 s.
